{"source": "paper PMC10555500", "about": "“Evaluation of the Antiproliferative Properties of CpRu Complexes Containing N-Methylated Triazaphosphaadamantane Derivatives” (Bioinorganic Chemistry and Applications, 2023)", "key": {"[1]": {"molecular_target": "human serum albumin (HSA) (Homo sapiens, UniProt P02768)", "sequence (P02768 25-609)": "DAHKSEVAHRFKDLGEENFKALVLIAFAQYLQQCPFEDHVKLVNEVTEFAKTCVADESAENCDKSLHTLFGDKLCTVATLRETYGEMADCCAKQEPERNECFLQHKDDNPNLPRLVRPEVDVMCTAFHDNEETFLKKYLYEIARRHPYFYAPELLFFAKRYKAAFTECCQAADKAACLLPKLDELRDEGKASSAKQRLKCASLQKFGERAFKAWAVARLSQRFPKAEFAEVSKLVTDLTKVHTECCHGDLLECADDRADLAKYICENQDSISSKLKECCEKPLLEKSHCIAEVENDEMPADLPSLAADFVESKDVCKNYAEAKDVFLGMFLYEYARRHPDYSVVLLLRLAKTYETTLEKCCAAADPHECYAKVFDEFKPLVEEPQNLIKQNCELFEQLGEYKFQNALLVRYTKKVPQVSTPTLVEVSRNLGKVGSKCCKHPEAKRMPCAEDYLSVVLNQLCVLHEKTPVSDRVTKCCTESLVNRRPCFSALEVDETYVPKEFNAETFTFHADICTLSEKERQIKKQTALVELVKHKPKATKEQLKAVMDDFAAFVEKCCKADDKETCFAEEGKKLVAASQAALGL", "assay": "Binding to human serum albumin by steady-state and time-resolved Trp214 fluorescence", "protocol": "(§1) The stock solutions of HSA were freshly prepared for each experiment by gently dissolving protein in PBS pH 7.4 (tablets from Fisher) for 1 hour to allow protein to completely hydrate. The concentration of the protein in the stock solutions was determined by spectrophotometry using the molar absorption coefficient at 280 nm ε280(HSA) = 36,850 M^−1·cm^−1 [38].\nIn each essay, all spectroscopic measurements were carried out on individually prepared samples to ensure the same preincubation time at (37.0 ± 0.1)°C, the same % of DMSO in the final samples, and the same exposure to excitation light and to avoid the need for dilution corrections. Moreover, for a direct titration protocol, a highly concentrated stock solution of the compounds in the buffer would be required, which would raise solubility issues. Dimethylsulfoxide (DMSO, from Fisher) was used to prepare concentrated stock solutions of each complex, followed by appropriate dilution to obtain the desired concentration. The DMSO content was kept at 2% (v/v) in PBS pH 7.4 in all samples. Dilutions were carried out immediately before sample preparation.\nFluorescence measurements were performed at 25.0 ± 0.1°C. The final protein concentration in the individually prepared samples (3.72 to 5 μM) was kept constant in each assay, and the complex concentration was varied to obtain desired HSA: Ru-complex molar ratios ranging from 1 : 0.25 to 1 : 10. A control sample containing the same amount of protein and final DMSO content and with no complex was also prepared for each experiment. Appropriate blank samples with no protein but with the same complex concentrations were prepared as well for background correction.\nThe steady-state fluorescence intensity was measured with excitation at 295 nm, and emission spectra were collected with bandwidths of 4 nm for both excitation and emission. For Stern–Volmer plots, the fluorescence intensity with emission at 340 nm was selected because it is near the maximum emission wavelength (so the sensitivity is close to maximum), but it is further to red in relation to the water Raman scattering peak. These values were corrected for the absorption and emission inner filter effects using the absorbance recorded for each sample at the excitation and emission wavelengths used for the steady-state quenching analysis. For time-resolved fluorescence measurements, the single-photon-counting technique was used with nanoLED N-280 (Horiba Jobin Yvon) as the pulsed excitation source (280 nm) and with emission collected at 350 nm (13 nm emission bandwidth), eliminating the contribution of the emission by tyrosine residues.\nThe experimental fluorescence intensity decays of HSA in buffer solution can be described by a sum of exponentials:(1) It=∑i=1npiexp−t/τi, where pi and τi are the pre-exponential factors and lifetime of component i, respectively. The amplitude or normalized pre-exponential of each lifetime component αi is pi/Σipi with Σiαi = 1. Fluorescence decays were analysed by an iterative deconvolution method using the TRFA Data Processor software (version 1.4; Minsk, Belarus), and the instrument response function was obtained using scattering by a colloidal suspension of silica (Ludox®, Sigma-Aldrich) diluted in water. Criteria for judging the quality of the fit were reduced χ^2 close to 1 and a random distribution of weighted residuals and residual autocorrelation.\nTo evaluate changes in the quantum yield by processes affecting the fluorescence lifetimes of HSA, the amplitude-weighted mean fluorescence lifetime ( τ¯ ) was calculated using the following equation:(2) τ¯=∑i=1nαiτi.\nas §1, with “dissolving the” for “dissolving”, “allow the” for “allow”, “of” for “of the”, “M^−1 cm^−1.[8] […]” for “M^−1·cm^−1 [38].”"}, "[2]": {"system": "MDA-MB-231 cells", "assay": "Complex uptake and subcellular distribution by ICP-MS", "type": "cell-based, human", "settings": "MDA-MB-231, ICP-MS 106Pd", "protocol": "For the cellular uptake experiments, MDA-MB-231 cells (approx. 5·10^6 cells/5 mL medium) were exposed to the complexes at their respective IC50 concentrations and in two conditions (6 h and 24 h of incubation time) and then washed with ice-cold PBS and centrifuged to obtain a cellular pellet. The cytosol, membrane/particulate, cytoskeletal, and nuclear fractions were extracted using a FractionPREP™ cell fractionation system (BioVision, USA) and performed according to the manufacturer's protocol. The Ru (^101Ru) and Pd (^106Pd) contents in different fractions were measured by using Thermo X-Series Quadrupole ICP-MS (Thermo Scientific) after the digestion of the samples. Briefly, the samples were digested with ultrapure HNO3 (65%), H2O2, and H3PO4 in a closed pressurized microwave digestion unit (Mars5, CEM) with medium-pressure HP500 vessels and then diluted in ultrapure water to obtain 2.0% (v/v) nitric acid. The instrument was tuned using a multielement ICP-MS 71C standard solution (Inorganic Venture). Indium (115In) at […] was used as the internal standard.\nFor the cellular uptake experiments, MDA-MB-231 cells (approx. 5·10^6 cells / 5 mL medium) were exposed to the complexes at their respective IC50 concentrations and at two conditions (6 h and 24 h of incubation time)., then washed with ice-cold PBS and centrifuged to obtain a cellular pellet.[7] […]"}}, "data": [{"smiles": "CN1CN2CN(C)C[P]([Ru+2]([P](c3ccccc3)(c3ccccc3)c3ccccc3)[P](c3ccccc3)(c3ccccc3)c3ccccc3)(C1)C2.O=S(=O)([O-])C(F)(F)F.[Cl][Pd][Cl].c1cc[cH-]c1", "note": "[Compound 11, [RuCp(PPh3)2-µ-dmoPTA-1κP-2κ^2N,N′-PdCl2](CF3SO3)]", "values": [{"measurement": "Emission intensity of Trp214 relative to value in the absence of compound", "setting": "[1]; 20 µM compound (1:4 HSA:compound), 24 h, λem 340 nm", "result": "~40", "unit": "%"}, {"measurement": "Type of quenching", "setting": "[1]; HSA-Trp214 fluorescence", "result": "“Dynamic” and static"}, {"measurement": "Log K′B", "setting": "[1]; PBS pH 7.4/2% DMSO, 24 h at 37°C", "result": "4.66 ± 0.07"}, {"measurement": "K′B (conditional binding constant)", "setting": "[1]; PBS pH 7.4/2% DMSO, 24 h at 37°C, fluorescence lifetime Stern–Volmer", "result": "4.58 ± 0.33 × 10^4 M^−1"}, {"measurement": "Concentration above which aggregate formation with HSA is seen", "setting": "[1]; absorption spectra, only in the presence of HSA", "result": "higher than 10 µM"}, {"measurement": "Spectral shift of Trp214 emission", "setting": "[1]; steady-state emission, 24 h incubation", "result": "small blueshift"}, {"measurement": "Effect on amplitude-weighted mean fluorescence lifetime of HSA-Trp214", "setting": "[1]; time-resolved fluorescence, λem 350 nm", "result": "decreased"}, {"measurement": "Pd amount in the membranes", "setting": "[2]", "result": "only residual"}]}]}
